Reference: the supplement of paper PMC10307832

Legend:
Experiment in all cases: relative viability (nuclei count vs DMSO), 5 days (fraction); higher = more cells survive
Dactolisib + Tozasertib = compound: Cn1c(=O)n(-c2ccc(C(C)(C)C#N)cc2)c2c3cc(-c4cnc5ccccc5c4)ccc3ncc21 [Dactolisib] + Cc1cc(Nc2cc(N3CCN(C)CC3)nc(Sc3ccc(NC(=O)C4CC4)cc3)n2)n[nH]1 [Tozasertib] (partner 0.1 µM)
Procedure, shortened: (§1)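 Lung cancer cell lines in 1536-well plates got either a single drug or a fixed anchor-drug dose together with five library-drug doses (not always all listed) in √10 steps, by pin tool, on the day after seeding. Nuclei were counted after 5 days, and relative viability is the treated-to-vehicle ratio of nuclei counts. Values are medians of duplicate plates.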

Dactolisib + Olaparib = compound: Cn1c(=O)n(-c2ccc(C(C)(C)C#N)cc2)c2c3cc(-c4cnc5ccccc5c4)ccc3ncc21 [Dactolisib] + O=C(c1cc(Cc2n[nH]c(=O)c3ccccc23)ccc1F)N1CCN(C(=O)C2CC2)CC1 [Olaparib] (partner 8 µM)
Procedure, shortened: as §1

Dactolisib + Luminespib = compound: Cn1c(=O)n(-c2ccc(C(C)(C)C#N)cc2)c2c3cc(-c4cnc5ccccc5c4)ccc3ncc21 [Dactolisib] + CCNC(=O)c1noc(-c2cc(C(C)C)c(O)cc2O)c1-c1ccc(CN2CCOCC2)cc1 [Luminespib] (partner 0.01 µM)
Procedure, shortened: as §1

AZ505 + Vorinostat = compound: C1CCC(CC1)N(CCNCCC2=C3C(=C(C=C2)O)NC(=O)CO3)C(=O)CCNCCC4=CC(=C(C=C4)Cl)Cl [AZ505] + O=C(CCCCCCC(=O)Nc1ccccc1)NO [Vorinostat] (partner 1 µM)
Procedure, shortened: as §1

| Cell Line | relative viability (Dactolisib + Tozasertib; first compound 0.002 µM) | relative viability (Dactolisib + Tozasertib; first compound 0.006325 µM) | relative viability (Dactolisib + Tozasertib; first compound 0.02 µM) | relative viability (Dactolisib + Tozasertib; first compound 0.06325 µM) | relative viability (Dactolisib + Tozasertib; first compound 0.2 µM) | relative viability (Dactolisib + Olaparib; first compound 0.002 µM) | relative viability (Dactolisib + Olaparib; first compound 0.006325 µM) | relative viability (Dactolisib + Olaparib; first compound 0.02 µM) | relative viability (Dactolisib + Olaparib; first compound 0.06325 µM) | relative viability (Dactolisib + Olaparib; first compound 0.2 µM) | relative viability (Dactolisib + Luminespib; first compound 0.002 µM) | relative viability (Dactolisib + Luminespib; first compound 0.006325 µM) | relative viability (Dactolisib + Luminespib; first compound 0.02 µM) | relative viability (Dactolisib + Luminespib; first compound 0.06325 µM) | relative viability (Dactolisib + Luminespib; first compound 0.2 µM) | relative viability (AZ505 + Vorinostat; first compound 0.08 µM) | relative viability (AZ505 + Vorinostat; first compound 0.253 µM) | relative viability (AZ505 + Vorinostat; first compound 0.8 µM) | relative viability (AZ505 + Vorinostat; first compound 2.53 µM) | relative viability (AZ505 + Vorinostat; first compound 8 µM) |
| --- | --- | --- | --- | --- | --- | --- | --- | --- | --- | --- | --- | --- | --- | --- | --- | --- | --- | --- | --- | --- |
| NCI-H460 | 0.38 | 0.396 | 0.387 | 0.257 | 0.139 | 0.256 | 0.45 | 0.423 | 0.341 | 0.335 | 0.0375 | 0.0432 | 0.0185 | 0.0179 | 0.0243 | 0.69 | 0.912 | 0.672 | 0.71 | 0.782 |
| EKVX | 0.426 | 0.366 | 0.423 | 0.242 | 0.179 | 0.661 | 0.867 | 0.861 | 0.469 | 0.331 | 0.808 | 0.743 | 0.736 | 0.453 | 0.247 | 0.66 | 0.766 | 0.687 | 0.548 | 0.899 |
| NCI-H358 | 0.114 | 0.0941 | 0.0945 | 0.0839 | 0.0896 | 0.675 | 0.557 | 0.552 | 0.478 | 0.169 | 0.399 | 0.289 | 0.273 | 0.203 | 0.111 | 0.665 | 1.03 | 0.834 | 0.633 | 0.69 |
| EPLC-272H | 0.348 | 0.221 | 0.243 | 0.207 | 0.193 | 0.807 | 0.486 | 0.512 | 0.284 | 0.232 | 0.691 | 0.262 | 0.264 | 0.203 | 0.23 | 0.443 | 0.516 | 0.413 | 0.52 | 0.398 |
| NCI-H1395 | 0.657 | 0.709 | 0.676 | 0.593 | 0.53 | 0.439 | 0.434 | 0.428 | 0.387 | 0.401 | 0.544 | 0.681 | 0.678 | 0.434 | 0.43 | 0.711 |  | 0.68 | 0.744 | 0.812 |
| NCI-H2126 | 0.813 | 0.829 | 0.814 | 0.536 | 0.452 | 0.975 | 0.895 | 0.878 | 0.514 | 0.44 | 0.803 | 0.868 | 0.809 | 0.334 | 0.296 | 0.724 | 0.682 | 0.751 | 0.696 | 0.757 |
| LXF-289 | 0.236 | 0.189 | 0.226 | 0.182 | 0.136 | 1.21 | 0.986 | 1 | 0.973 | 0.695 | 0.698 | 0.688 | 0.669 | 0.478 | 0.403 | 0.807 | 0.787 | 0.808 | 0.703 | 0.787 |
| NCI-H2009 | 0.742 | 0.717 | 0.764 | 0.488 | 0.238 | 0.656 | 0.692 | 0.65 | 0.759 | 0.312 | 1.14 | 1.05 | 0.89 | 1 | 0.362 | 0.635 | 0.678 | 0.652 | 0.626 | 0.678 |
